What was measured:
EtCKIα = EtCKIα (Eimeria tenella, UniProt Q6QNL9); assay: Casein kinase assay, partially purified native EtCKIα; type: biochemical; conditions: native enzyme
Protocol: (§1) Protein kinase assays—Casein kinase activity was assayed essentially as described (Donald, R. G. K. et al., 2002, supra) using 96-well phosphocellulose plates (MAPH-NOB, Millipore; Billerica, Mass.) to capture ^33P-phosphorylated peptide or casein substrates. Kinase reactions were carried out in 40 μl volumes containing 25 mM Hepes, pH 7.4, 10 mM MgCl2, 20 mM β-glycerophosphate, 1 mM DTT, 250 μM substrate, 1 mg/mL BSA, 2 μM ATP, and 0.01 μM [γ-^33P]ATP (Perkin-Elmer, 3000 Ci/mmol). The reactions were initiated by the addition of enzyme and incubated at room temperature for 60 min. Casein (5% solution), partially dephosphorylated α-casein and β-casein were obtained from Sigma.
(§2) A variety of commercially available peptide substrates were evaluated. From Calbiochem (San Diego, Calif.): CKI substrate (RRKDLHDDEEDEAMSITA; SEQ ID NO:13); CKII substrate (RRADDSDDDDD; SEQ ID NO:14); Syntide-2 substrate (PLARTLSVAGLPGKK; SEQ ID NO:15); CaM kinase II substrate (281-291) (MHKNETVECLK; SEQ ID NO:16). From Promega: CKI substrate (DDDEESITRR; SEQ ID NO:17) and kemptide (LRRASLG; SEQ ID NO:18). From New England Biolabs (Beverly, Mass.): CKI phosphopeptide substrate (KRRRALS(p)VASLPGL; SEQ ID NO:19), and CKII substrate (RRREEETEEE; SEQ ID NO:20). PKG assays were performed with kemptide as substrate and 10 μM cGMP. CDPK was assayed with Syntide-2 substrate and in the presence of 100 μM CaCl2.
Partial purification of native EtCKIα—The inability to stably express recombinant EtCKIα in T. gondii provided impetus to purify native enzyme from E. tenella parasites (slide 5). A lysate was prepared from 2×10^10 unsporulated oocysts using previously published procedures (Gurnett, A. M. et al., 2002, supra). The first two steps of the purification scheme used were essentially scaled-up from the method described for the purification of native TgCKIα. The lysate was subjected to preparative HiLoad Q anion-exchange chromatography and fractions eluted with a NaCl gradient (0-1 M NaCl). […]

TgCDPK1 = target: T1, TgCDPK1 (Toxoplasma gondii, UniProt Q9BJF5); assay: CDPK assay with Syntide-2, T. gondii CDPK1; type: biochemical; conditions: 0.2 μM hymenialdisine or 1 μM purvalanol B; CKI phosphopeptide substrate
T1 construct: The TgCDPK1 open reading frame was amplified by PCR from a Toxoplasma cDNA library; made in house
Protocol: as §1, §2
Purification of recombinant TgCDPK1 and TgPKG—The TgCDPK1 open reading frame was amplified by PCR from a Toxoplasma cDNA library, using primers based on the published sequence (Kieschnick et al., 2001, supra): sense primer, […] (SEQ ID NO:44); and, antisense primer, […] (SEQ ID NO:45). A C-terminal FLAG epitope tag was appended to the TgCDPK1 open reading frame by an additional round of PCR amplification (KOD polymerase) and the resulting DNA fragment was sub-cloned into a tubulin promoter expression vector (Donald and Liberator, 2002, supra). […]

T. gondii = assay: Parasite growth inhibition, modified [3H]-uracil uptake assay in infected HFF cell monolayers; type: cell-based, Toxoplasma gondii; conditions: Toxoplasma gondii; uracil uptake assay, infected HFF cell monolayers; read-out: IC50
Source text: Host cells and parasite cultures—RH strain or RH ΔHXGPRT strain tachyzoites of T. gondii were maintained by serial passage in confluent monolayers of human foreskin fibroblasts (“HFF”) as described (Roos, D. S. et al., 1994, Methods Cell Biol. 45:27-63). A modified [^3H]-uracil uptake assay (Pfefferkorn, E. R. and Pfefferkorn, L. C., 1977, J. Protozool. 24:449-453) adapted for use in 96-well scintillation plates (Cytostar-T, Amersham; Piscataway, N.J.) was used to measure parasite growth inhibition. Each well, previously seeded with HFF cells, was inoculated with T. gondii tachyzoites (2×10^4) in 200 μl of growth media containing 2 μCi [5,6]-^3H-uracil (Perkin-Elmer NEN; Boston, Mass.) and serially diluted compound. Following incubation at 37° C. for 36-48 hours, tritium-incorporation into host cell monolayers was directly counted in a microplate scintillation counter (MicroBeta, PerkinElmer-Wallac).
The only other CDK inhibitor with sub-μM activity against T. gondii was indirubin-3′-monoxime, which gave an IC50 value of 500 nM.

Chain of EtCKIα (Q6QNL9 whole entry): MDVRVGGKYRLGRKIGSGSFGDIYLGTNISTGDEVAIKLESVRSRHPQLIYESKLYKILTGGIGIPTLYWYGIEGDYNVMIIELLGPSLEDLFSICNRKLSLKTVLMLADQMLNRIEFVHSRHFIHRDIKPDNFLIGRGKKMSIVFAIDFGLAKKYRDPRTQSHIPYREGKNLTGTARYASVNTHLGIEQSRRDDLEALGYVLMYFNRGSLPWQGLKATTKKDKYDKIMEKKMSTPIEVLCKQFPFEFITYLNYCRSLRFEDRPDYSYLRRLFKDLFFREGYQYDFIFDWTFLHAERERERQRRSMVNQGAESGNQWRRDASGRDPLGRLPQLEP
T1 sequence (Q9BJF5 entry or part of it): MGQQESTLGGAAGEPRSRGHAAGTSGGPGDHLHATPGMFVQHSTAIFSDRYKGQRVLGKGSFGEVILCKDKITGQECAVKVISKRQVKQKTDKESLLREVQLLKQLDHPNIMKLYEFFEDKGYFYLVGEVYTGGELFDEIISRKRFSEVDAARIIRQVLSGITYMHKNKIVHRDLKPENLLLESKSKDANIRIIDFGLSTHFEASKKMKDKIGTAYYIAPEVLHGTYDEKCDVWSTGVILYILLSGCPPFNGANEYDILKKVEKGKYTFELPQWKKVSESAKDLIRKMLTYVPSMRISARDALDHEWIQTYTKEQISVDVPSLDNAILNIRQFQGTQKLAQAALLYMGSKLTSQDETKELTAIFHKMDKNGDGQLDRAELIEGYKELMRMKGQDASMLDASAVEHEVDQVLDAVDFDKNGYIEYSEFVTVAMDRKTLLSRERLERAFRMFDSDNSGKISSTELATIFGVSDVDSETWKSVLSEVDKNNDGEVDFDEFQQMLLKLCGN

Q: With `CC(C)[C@H](CO)Nc1nc(Nc2ccc(C(=O)O)c(Cl)c2)c2ncn(C(C)C)c2n1` [purvalanol B] as the compound, how does the “activity against / sensitivity of EtCKIα” value (EtCKIα) read?
A: good activity

Q: And the “sensitivity of phosphopeptide kinase activity of fractions 14 and 15 (TgCDPK1)” value (TgCDPK1)?
A: partial sensitivity

Q: And the IC50 (T. gondii)?
A: 260 nM
